Measured values taken from patent US20090010979A1, “Method of Controlling Termites” (BAYER CROPSCIENCE LP, priority 2004, published 2009).

Assay: Arrestant composition on silica with Premise 75WP distributed in soil: movement of components
Assay type: physicochemical
Settings: after several months
Protocol: (A) Preparation of the arrestant composition: A mixture of 5-methylpentacosane, 11-methylpentacosane, 9-Z-pentacosene, n-pentacosane, and n-hexamethylcosane in proportion of about 11.4:36.3:19.6:27.7:5.0 as a 0.06% (by weight) solution in acetone (0.06 g) was diluted into acetone and mixed with 149.4 g of Zeolex® 7A brand silica (J.M. Huber, Inc. USA) The acetone was removed by evaporation at 50° C. at 3.5 mm Hg to provide a smooth flowable powder. The powder was mixed with 850 g of Premise® 75WP (imidacloprid active ingredient), and milled to a consistent appearance.
(B) Use of the Arrestant Composition of Part (A): The final product is distributed in soil.

SMILES: O=[N+]([O-])NC1=NCCN1Cc1ccc(Cl)nc1 [imidacloprid]
- movement in soil: moves downward
